This assay deals with Influenza PB2 (Influenza A virus, UniProt P03428). The experiment in a line: biochemical. Type of assay: binding. The note with it: read-out: Influenza PB2 affinity, IC50.

The structures appear in SMILES notation.

In US11014941B2, “Pyrrolopyrimidine derivatives useful as inhibitors of influenza virus replication” (priority 2017, dated 2021) one finds IC50 data, which are given here for 60 compounds.

Influenza PB2, sequence (P03428 whole entry, looked up): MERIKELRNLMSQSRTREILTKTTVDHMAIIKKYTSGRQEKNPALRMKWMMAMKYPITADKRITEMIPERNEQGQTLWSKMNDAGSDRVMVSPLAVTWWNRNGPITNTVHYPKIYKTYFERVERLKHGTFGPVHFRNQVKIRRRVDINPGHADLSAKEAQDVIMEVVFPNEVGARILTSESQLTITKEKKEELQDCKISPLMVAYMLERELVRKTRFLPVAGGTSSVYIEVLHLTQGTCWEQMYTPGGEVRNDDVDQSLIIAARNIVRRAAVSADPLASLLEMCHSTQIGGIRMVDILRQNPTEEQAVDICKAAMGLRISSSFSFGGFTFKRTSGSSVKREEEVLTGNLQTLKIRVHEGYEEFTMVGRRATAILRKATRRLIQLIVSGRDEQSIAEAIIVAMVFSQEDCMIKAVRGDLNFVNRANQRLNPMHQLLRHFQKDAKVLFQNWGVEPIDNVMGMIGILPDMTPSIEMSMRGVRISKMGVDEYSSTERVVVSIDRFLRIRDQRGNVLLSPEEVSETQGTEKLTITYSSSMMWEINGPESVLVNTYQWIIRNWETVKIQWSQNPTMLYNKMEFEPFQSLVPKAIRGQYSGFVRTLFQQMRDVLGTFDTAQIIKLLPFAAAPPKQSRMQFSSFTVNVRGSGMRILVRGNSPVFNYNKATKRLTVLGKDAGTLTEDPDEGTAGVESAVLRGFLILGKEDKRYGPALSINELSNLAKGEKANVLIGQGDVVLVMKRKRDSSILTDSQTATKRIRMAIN

With `CCOC(=O)[C@@H]1C2CCC(CC2)[C@H]1n1cc(-c2ccncc2)c2cnc(-c3c[nH]c4ncc(F)cc34)nc21` [Compound B176], the IC50 was in the range of 10 to 100 µM.
For `CC(=O)N[C@H]1C2CCC(CC2)[C@@H]1n1cc(Cl)c2cnc(-c3c[nH]c4ncc(F)cc34)nc21` [Compound B166], the IC50 is 10 to 100 µM.
As for `CCOC(=O)[C@@H]1C2CCC(CC2)[C@H]1n1cc(CCCCSC)c2cnc(-c3c[nH]c4ncc(F)cc34)nc21` [Compound B201], the IC50 was greater than 100 µM.
Take `O=C(O)[C@@H]1C2CCC(CC2)[C@H]1n1cc(-c2cn[nH]c2)c2cnc(-c3c[nH]c4ncc(F)cc34)nc21` [Compound B179]: the IC50 is less than 1 µM.
Take `O=C(N[C@H]1CCC[C@@H](n2cc(F)c3cnc(-c4c[nH]c5ncc(Cl)cc45)nc32)C1)N1CCc2ccccc21` [Compound B102]: the concentration for half-maximal inhibition (IC50) is greater than 100 µM.
For the compound `O=C(O)CCN1CCc2cnc(-c3c[nH]c4ncc(F)cc34)nc21` [Compound B13], the IC50 lay in the range of 10 to 100 µM.
The same measure for `CCOC(=O)[C@@H]1C2CCC(CC2)[C@H]1n1cc(-c2cn[nH]c2)c2cnc(-c3c[nH]c4ncc(F)cc34)nc21` [Compound B174]: 10 to 100 µM; for `COC(=O)CCn1ccc2c(-c3c[nH]c4ncc(F)cc34)ncnc21` [Compound A2]: 10 to 100 µM.
On to `O=C(O)[C@@H]1C2CCC(CC2)[C@H]1n1cc(CCc2ccccn2)c2cnc(-c3c[nH]c4ncc(F)cc34)nc21` [Compound B186], for which the IC50 is less than 1 µM.
In the case of `O=C(O)[C@H]1C2CCC(CC2)[C@@H]1n1ccc2cnc(-c3c[nH]c4ncc(Cl)cc34)nc21` [Compound B124], the IC50 was 1 to 10 µM.
`O=C(O)[C@@H]1C2CCC(CC2)[C@H]1n1cc(-c2ccncc2)c2cnc(-c3c[nH]c4ncc(F)cc34)nc21` [Compound B147]: the half-maximal inhibitory concentration (IC50) fell in the range of 1 to 10 µM.
`CCOCCOCCOCCN(C)C(=O)N[C@H]1CCC[C@@H](n2ccc3cnc(-c4c[nH]c5ncc(F)cc45)nc32)C1` [Compound B29]: the IC50 is 10 to 100 µM.
Regarding `O=C(O)[C@H]1C2CCC(CC2)[C@@H]1n1cc(-c2cccnc2)c2cnc(-c3c[nH]c4ncc(F)cc34)nc21` [Compound B142], the 50% inhibitory concentration (IC50) is less than 1 µM.
With `CCOC(=O)[C@H]1C2CCC(CC2)[C@@H]1n1cc(F)c2cnc(-c3c[nH]c4ncc(F)cc34)nc21` [Compound B129], the IC50 fell in the range of 10 to 100 µM.
On to `O=C(O)[C@H]1CCC[C@@H]1n1ccc2cnc(-c3c[nH]c4ncc(F)cc34)nc21` [Compound B16], for which the concentration for half-maximal inhibition (IC50) was 1 to 10 µM.
As for `CCCCCOCCCCC(=O)N[C@H]1CCC[C@@H](n2ccc3cnc(-c4c[nH]c5ncc(F)cc45)nc32)C1` [Compound B50], the IC50 was greater than 100 µM.
Regarding `CNC(=O)N[C@H]1C2CCC(CC2)[C@@H]1n1cc(Cl)c2cnc(-c3c[nH]c4ncc(F)cc34)nc21` [Compound B168], the concentration for half-maximal inhibition (IC50) was in the range of 1 to 10 µM.
For `CNC(=O)[C@@H]1CCCC[C@H]1n1cc(F)c2cnc(-c3c[nH]c4ncc(Cl)cc34)nc21` (racemic) [Compound B95], the IC50 fell in the range of 10 to 100 µM.
On to `CC(=O)N1CCC(Cn2cc(F)c3cnc(-c4c[nH]c5ncc(F)cc45)nc32)CC1` [Compound B58], for which the IC50 was in the range of 10 to 100 µM.
For the compound `CN(C)C(=O)N1CCCCC1Cn1cc(F)c2cnc(-c3c[nH]c4ncc(F)cc34)nc21` (stereo not drawn) [Compound B86], the half-inhibitory concentration (IC50) is 1 to 10 µM.
On to `CC(=O)NCCn1cc(-c2c[nH]c3ncc(F)cc23)c2cncnc21` [Compound C12], for which the IC50 was greater than 100 µM.
Next, `COC(=O)N[C@H]1C2CCC(CC2)[C@@H]1n1cc(Cl)c2cnc(-c3c[nH]c4ncc(F)cc34)nc21` [Compound B149]: 1 to 10 µM; `CCOCCOCCOCCNC(=O)[C@H]1CCC[C@@H](n2ccc3cnc(-c4c[nH]c5ncc(F)cc45)nc32)C1` [Compound B46]: 10 to 100 µM.
As to `O=C(O)[C@@H]1CCCC[C@H]1n1cc(F)c2cnc(-c3c[nH]c4ncc(Cl)cc34)nc21` [Compound B87], the concentration for half-maximal inhibition (IC50) is less than 1 µM.
Take `CN(C)C(=O)Cn1cc(-c2c[nH]c3ncc(F)cc23)c2cncnc21` [Compound C1]: the IC50 fell in the range of 10 to 100 µM.
With `C[C@@]1(C(=O)O)CCCC[C@H]1n1cc(F)c2cnc(-c3c[nH]c4ncc(F)cc34)nc21` [Compound B89], the IC50 was less than 1 µM.
As to `O=C(O)C1=C(N2CCc3cnc(-c4c[nH]c5ncc(F)cc45)nc32)CCCC1` [Compound B53], the IC50 lay in the range of 1 to 10 µM.
With `O=C(O)[C@@H]1C2CCC(CC2)[C@H]1n1cc(-c2ccccn2)c2cnc(-c3c[nH]c4ncc(F)cc34)nc21` [Compound B169], the concentration for half-maximal inhibition (IC50) is less than 1 µM.
Next, `CCOC(=O)[C@@H]1C2CCC(CC2)[C@H]1n1cc(-c2cccc(O)c2)c2cnc(-c3c[nH]c4ncc(F)cc34)nc21` [Compound B182]: 1 to 10 µM; `CCOC(=O)[C@]1(C)CCCC[C@H]1n1cc(F)c2cnc(-c3c[nH]c4ncc(Cl)cc34)nc21` [Compound B88]: greater than 100 µM; `COC(=O)[C@H](Cc1ccccc1)NC(=O)Cn1ccc2cnc(-c3c[nH]c4ncc(F)cc34)nc21` [Compound B8]: greater than 100 µM.
As to `CNC(=O)[C@@H]1CCCCC1n1cc(F)c2cnc(-c3c[nH]c4ncc(Cl)cc34)nc21` (stereo partly drawn) [Compound B94], the half-maximal inhibitory concentration (IC50) was in the range of 10 to 100 µM.
On to `CNC(=O)[C@]1(C)CCCC[C@H]1n1cc(F)c2cnc(-c3c[nH]c4ncc(Cl)cc34)nc21` [Compound B92], for which the IC50 lay in the range of 10 to 100 µM.
With `CN(C)C(=O)Cn1ccc2c(-c3c[nH]c4ncc(F)cc34)ncnc21` [Compound A1], the half-inhibitory concentration (IC50) fell in the range of 10 to 100 µM.
Take `CC(C)(C)OC(=O)N[C@@H]1C2CCC(CC2)[C@H]1n1cc(Cl)c2cnc(-c3c[nH]c4ncc(F)cc34)nc21` [Compound B172]: the IC50 is greater than 100 µM.
Next, `O=C(O)[C@H]1CCCC1n1ccc2cnc(-c3c[nH]c4ncc(F)cc34)nc21` (single isomer, unassigned) [Compound B22]: 1 to 10 µM; `O=C(Cn1ccc2cnc(-c3c[nH]c4ncc(F)cc34)nc21)N[C@@H](Cc1ccccc1)C(=O)O` [Compound B14]: 10 to 100 µM; `O=C(O)[C@@H]1C2CCC(CC2)[C@H]1n1cc(-c2ccsc2)c2cnc(-c3c[nH]c4ncc(F)cc34)nc21` [Compound B162]: less than 1 µM.
On to `O=C(O)[C@@H]1C2CCC(CC2)[C@H]1n1ccc2ccc(-c3c[nH]c4ncc(F)cc34)nc21` [Compound B205], for which the half-inhibitory concentration (IC50) was 1 to 10 µM.
As to `O=C(O)[C@H]1C2CCC(CC2)[C@@H]1n1ccc2cnc(-c3c[nH]c4ncc(F)cc34)nc21` [Compound B123], the IC50 is 1 to 10 µM.
The same measure for `COC(=O)[C@H](C)NC(=O)Cn1ccc2cnc(-c3c[nH]c4ncc(F)cc34)nc21` [Compound B7]: greater than 100 µM.
For `O=C(O)[C@@H]1C2CCC(CC2)[C@H]1n1cc(-c2ccncc2Cl)c2cnc(-c3c[nH]c4ncc(Cl)cc34)nc21` (relative stereo) [Compound B212], the IC50 lay within 1 to 10 µM.
For the compound `CCOC(=O)[C@@H]1C2CCC(CC2)[C@H]1n1cc(-c2cccnc2)c2cnc(-c3c[nH]c4ncc(F)cc34)nc21` [Compound B181], the IC50 was in the range of 1 to 10 µM.
Take `COC(=O)[C@@H]1CCC[C@H]1n1ccc2cnc(-c3c[nH]c4ncc(F)cc34)nc21` [Compound B19]: the IC50 is 1 to 10 µM.
For `COC(=O)C[C@H](NC(=O)Cn1ccc2c(-c3c[nH]c4ncc(F)cc34)ncnc21)C(=O)OC` [Compound A12], the IC50 is greater than 100 µM.
The same measure for `O=C(O)[C@H]1C2CCC(CC2)C1n1cc(Cl)c2cnc(-c3c[nH]c4ncc(F)cc34)nc21` (single isomer, unassigned) [Compound B133]: less than 1 µM.
For `O=C(O)C1=C(n2cc(F)c3cnc(-c4c[nH]c5ncc(F)cc45)nc32)C2CCC1CC2` [Compound B222], the IC50 was less than 1 µM.
Take `COC(=O)/C=C/n1ccc2cnc(-c3c[nH]c4ncc(F)cc34)nc21` [Compound B23]: the IC50 lay within 10 to 100 µM.
As for `O=C(O)[C@@H]1C2CCC(CC2)C1n1cc(Cl)c2cnc(-c3c[nH]c4ncc(Cl)cc34)nc21` (single isomer, unassigned) [Compound B136], the IC50 lay in the range of 1 to 10 µM.
For `CN(C)C(=O)N1CCC(Cn2cc(F)c3cnc(-c4c[nH]c5ncc(F)cc45)nc32)CC1` [Compound B63], the half-inhibitory concentration (IC50) was 10 to 100 µM.
For the compound `O=C(O)[C@H]1C2CCC(CC2)[C@@H]1n1cc(Cl)c2cnc(-c3c[nH]c4ncc(Cl)cc34)nc21` [Compound B130], the IC50 fell in the range of 1 to 10 µM.
Take `O=C(O)[C@@H]1C2CCC(CC2)[C@H]1n1cc(-c2ccc(O)cc2)c2cnc(-c3c[nH]c4ncc(F)cc34)nc21` [Compound B160]: the IC50 lay within 1 to 10 µM.
As to `N[C@H]1C2CCC(CC2)[C@@H]1n1cc(Cl)c2cnc(-c3c[nH]c4ncc(F)cc34)nc21` [Compound B167], the 50% inhibitory concentration (IC50) lay within 1 to 10 µM.
For `CCOCCOCCOCCNC(=O)[C@@H]1CCCC[C@@H]1n1ccc2cnc(-c3c[nH]c4ncc(F)cc34)nc21` [Compound B30], the 50% inhibitory concentration (IC50) was 10 to 100 µM.
`O=C(O)[C@@H]1C2CCC(CC2)[C@H]1n1cc(-c2ccoc2)c2cnc(-c3c[nH]c4ncc(F)cc34)nc21` [Compound B161]: the concentration for half-maximal inhibition (IC50) is less than 1 µM.
As to `O=C(O)Cn1cc(-c2c[nH]c3ncc(F)cc23)c2cncnc21` [Compound C4], the half-inhibitory concentration (IC50) was greater than 100 µM.
Take `O=C(O)[C@H]1C2CCC(CC2)[C@@H]1n1cc(Cl)c2cnc(-c3c[nH]c4ncccc34)nc21` [Compound B140]: the concentration for half-maximal inhibition (IC50) was less than 1 µM.
Regarding `CCOCCOCCOCCNC(=O)[C@@H]1CCCC[C@H]1n1ccc2cnc(-c3c[nH]c4ncc(F)cc34)nc21` [Compound B25], the half-inhibitory concentration (IC50) lay within 1 to 10 µM.
For `O=C(O)CCn1cc(-c2c[nH]c3ncc(F)cc23)c2cncnc21` [Compound C5], the IC50 was greater than 100 µM.
For `C[C@H](NC(=O)Cn1ccc2c(-c3c[nH]c4ncc(F)cc34)ncnc21)C(=O)O` [Compound A7], the IC50 was in the range of 10 to 100 µM.

The term IC50 denotes the concentration needed to halve the response being measured.
